Reference: patent US6638972B2, “Chroman and benzofuran derivatives as 5-hydroxytryptamine-6 ligands” (Wyeth, priority 2001, dated 2003)

Experiments:
[1] = target: T1, human cloned 5-HT6 receptors (Homo sapiens, UniProt P50406); assay: 5-HT6 binding affinity ([3H]-LSD displacement, membranes of Hela cells expressing human cloned 5-HT6 receptors); conditions: [3H]-LSD 3.0 nM, Hela cell membranes, 120 min at room temperature; read-out: 5-HT6 Binding Ki
T1 construct: expressed in transfected cells; host or cells: HeLa cells (membrane preparation)
T1 sequence (P50406 whole entry): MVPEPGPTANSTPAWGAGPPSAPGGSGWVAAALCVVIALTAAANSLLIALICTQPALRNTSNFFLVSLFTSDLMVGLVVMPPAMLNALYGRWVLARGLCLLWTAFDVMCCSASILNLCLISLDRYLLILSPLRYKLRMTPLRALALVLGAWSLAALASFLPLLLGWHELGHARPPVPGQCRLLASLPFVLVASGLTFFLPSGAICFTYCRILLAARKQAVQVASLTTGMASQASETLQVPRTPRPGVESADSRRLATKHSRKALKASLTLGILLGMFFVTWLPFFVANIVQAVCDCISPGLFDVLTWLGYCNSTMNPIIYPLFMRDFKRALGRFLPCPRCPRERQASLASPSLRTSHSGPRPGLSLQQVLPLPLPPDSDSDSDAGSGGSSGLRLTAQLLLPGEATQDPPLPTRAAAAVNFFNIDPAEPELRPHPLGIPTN
Experimental: The affinity of test compounds for the serotonin 5-T6 receptor is evaluated in the following manner. Cultured Hela cells expressing human cloned 5-HT6 receptors are harvested and centrifuged at low speed (1,000×g) for 10.0 min to remove the culture media. The harvested cells are suspended in half volume of fresh physiological phosphate buffered saline solution and recentrifuged at the same speed. This operation is repeated. The collected cells are then homogenized in ten volumes of 50 mM Tris.HCl (pH 7.4) and 0.5 mM EDTA. The homogenate is centrifuged at 40,000×g for 30.0 min and the precipitate is collected. The obtained pellet is resuspended in 10 volumes of Tris.HCl buffer and recentrifuged at the same speed. The final pellet is suspended in a small volume of Tris.HCl buffer and the tissue protein content is determined in aliquots of 10-25 μl volumes. Bovine Serum Albumin is used as the standard in the protein determination according to the method described in Lowry et al., J. Biol. Chem., 193:265 (1951). The volume of the suspended cell membranes is adjusted to give a tissue protein concentration of 1.0 mg/ml of suspension. The prepared membrane suspension (10 times concentrated) is aliquoted in 1.0 ml volumes and stored at −70° C. until used in subsequent binding experiments.
Binding experiments are performed in a 96 well microtiter plate format, in a total volume of 200 μl. […] The test compounds are added in 20.0 μl volume.
The reaction is allowed to proceed in the dark for 120 min at room temperature, at which time, the bound ligand-receptor complex is filtered off on a 96 well unifilter with a Packard Filtermate® 196 Harvester. The bound complex caught on the filter disk is allowed to air dry and the radioactivity is measured in a Packard TopCount® equipped with six photomultiplier detectors, after the addition of 40.0 μl Microscint®-20 scintillant to each shallow well. The unifilter plate is heat-sealed and counted in a PackardTopCount® with a tritium efficiency of 31.0%.
Binding in the presence of varying concentrations of test compound is expressed as a percentage of specific binding in the absence of test compound. The results are plotted as log % bound versus log concentration of test compound. […] A linear regression line of data points is plotted, from which the IC50 value is determined and the Ki value is determined based upon the following equation: […]
where L is the concentration of the radioactive ligand used and KD is the dissociation constant of the ligand for the receptor, both expressed in nM.

OCCCNCc1cc2ccc(OCc3ccccc3)cc2o1 [Example 55, 3-[(6-benzyloxy-benzofuran-2-ylmethyl)-amino]-propan-1-ol]
Ki [1]: 1180 nM
melting point: 145 to 147 °C
